From patent US20050113450A1, “Antibacterial agents” (priority 2002, published 2005) come the findings set out here.

The subject of the assay is SA 9218. The assay is described as follows: MIC by standard agar dilution method. Format: cell-based. As to conditions: Mueller Hinton agar, 10^4 to 10^5 cells per spot, incubated overnight at 35° C., lowest concentration that inhibits visible growth. The text has this:
The antibacterial agents of this invention have useful activity against a variety of organisms. The in vitro activity of compounds of this invention can be assessed by standard testing procedures such as the determination of minimum inhibitory concentration (MIC) by agar dilution as described in “Approved Standard. Methods for Dilution Antimicrobial Susceptibility Tests for Bacteria That Grow Aerobically”, 3rd. ed., published 1993 by the National Committee for Clinical Laboratory Standards, Villanova, Pa., USA. The in vitro MICs of test compounds were determined by a standard agar dilution method. A stock drug solution of each analog was prepared in the preferred solvent, usually DMSO:H2O (1:3). Serial 2-fold dilutions of each sample are made using 1.0 ml aliquots of sterile distilled water. To each 1.0 ml aliquot of drug was added 9 ml of molten Mueller Hinton agar medium. The drug-supplemented agar was mixed, poured into 15×100 mm petri dishes, and allowed to solidify and dry prior to inoculation. Vials of each of the test organisms are maintained frozen in the vapor phase of a liquid nitrogen freezer. Test cultures are grown overnight at 35° C. on the medium appropriate for the organism. Colonies are harvested with a sterile swab, and cell suspensions are prepared in Trypticase Soy broth (TSB) to equal the turbidity of a 0.5 McFarland standard. A 1:20 dilution of each suspension was made in TSB. The plates containing the drug supplemented agar are inoculated with a 0.001 ml drop of the cell suspension using a Steers replicator, yielding approximately 10^4 to 10^5 cells per spot. The plates are incubated overnight at 35° C. Following incubation the Minimum Inhibitory Concentration (MIC μg/ml), the lowest concentration of drug that inhibits visible growth of the organism, was read and recorded.

Each structure is given as a SMILES string. In brackets after ≈: the same amount, converted by molar mass.

Turning to `Cc1ccc(S(=O)(=O)Nc2ccc(C(=O)Nc3ccc(Br)cc3C(=O)O)cc2)cc1`, the MIC – broadly, the smallest concentration in the dilution series that meets the test's criterion for growth inhibition – was 16 µg/mL (≈ 32.7 µM).
Next, `O=C(Nc1ccc(I)cc1C(=O)O)c1ccc(S(=O)(=O)N2CCc3ccc(Cl)cc32)cc1`: 4 µg/mL (≈ 6.86 µM); `COc1cc(C(=O)c2ccc(C(=O)Nc3ccc(Cl)cc3C(=O)O)cc2)cc(OC)c1OC`: 4 µg/mL (≈ 8.51 µM).
Molecule `O=C(COc1ccc(Cl)cc1)c1ccc(C(=O)Nc2ccc(Cl)cc2C(=O)O)cc1` came in with an MIC of 4 µg/mL (≈ 9 µM).
On to `O=C(Nc1ccc(Cl)cc1C(=O)O)c1ccc(C(=O)c2ccc(Cl)cc2)cc1`, for which the MIC was found to be 4 µg/mL (≈ 9.66 µM).
The value for `Cl.NCc1ccc(C(=O)Nc2ccc(Br)cc2C(=O)O)cc1S(=O)(=O)N1CCc2ccccc21` was over 128 µg/mL.
The value for `O=C(Nc1ccc(Cl)cc1C(=O)O)c1ccc(C(=O)c2ccco2)cc1` was 4 µg/mL (≈ 10.8 µM); that for `CCCCCOc1cccc(C(=O)Nc2ccc(Br)cc2C(=O)O)c1` was 8 µg/mL (≈ 19.7 µM); that for `O=C(Nc1ccc(Cl)cc1C(=O)O)c1ccc(C(=O)c2ccc3c(c2)OCO3)cc1` was 2 µg/mL (≈ 4.72 µM).
The value for `CC(C)Oc1cccc(C(=O)Nc2ccc(Br)cc2C(=O)O)c1` was 2 µg/mL (≈ 5.29 µM); that for `CN(C)c1ccc(C(=O)c2ccc(C(=O)Nc3ccc(Cl)cc3C(=O)O)cc2)cc1` was 16 µg/mL (≈ 37.8 µM); that for `CCCCCOc1ccc(C(=O)Nc2ccc(Br)cc2C(=O)O)cc1` was 16 µg/mL (≈ 39.4 µM).
`CC(C)Oc1ccc(C(=O)Nc2ccc(Br)cc2C(=O)O)cc1` registered an MIC of 64 µg/mL (≈ 169 µM). Compared with the last molecule, the MIC is about 4-fold higher.
The value for `Nc1ccc(CCNS(=O)(=O)c2ccc(C(=O)Nc3ccc(Br)cc3C(=O)O)cc2)cc1` was 64 µg/mL (≈ 123 µM).
The value for `C=CCOc1cccc(C(=O)Nc2ccc(Br)cc2C(=O)O)c1` was 8 µg/mL (≈ 21.3 µM); that for `COc1ccc(C(=O)Nc2ccc(Br)cc2C(=O)O)cc1S(=O)(=O)NC1Cc2ccccc2C1` was 2 µg/mL (≈ 3.67 µM).
The value for `O=C(Nc1ccc(Br)cc1C(=O)O)c1ccc(OCc2ccccc2)cc1` was 16 µg/mL (≈ 37.5 µM).
Turning to `O=C(Nc1ccc(Br)cc1C(=O)O)c1cccc(S(=O)(=O)NC2Cc3ccccc3C2)c1`, 1 µg/mL (≈ 1.94 µM) was the least that counted as inhibitory (MIC).
Next, `Cc1ccc(C(=O)Nc2ccc(Br)cc2C(=O)O)cc1S(=O)(=O)NCCc1ccc(N)cc1`: 8 µg/mL (≈ 15 µM).
For `Cc1ccc(C(=O)Nc2ccc(Br)cc2C(=O)O)cc1S(=O)(=O)N1CCN(c2cccc(C(F)(F)F)c2)CC1`, the MIC is 16 µg/mL (≈ 25.5 µM).
Next, `Cc1ccc(C(=O)Nc2ccc(Br)cc2C(=O)O)cc1S(=O)(=O)NC1Cc2ccccc2C1`: 0.25 µg/mL (≈ 0.472 µM); `O=C(Nc1ccc(Br)cc1C(=O)O)c1cccc(S(=O)(=O)N2CCN(c3cccc(C(F)(F)F)c3)CC2)c1`: 16 µg/mL (≈ 26.1 µM); `O=C(Nc1ccc(Br)cc1C(=O)O)c1cc(S(=O)(=O)NC2Cc3ccccc3C2)ccc1Br`: 0.25 µg/mL (≈ 0.421 µM).
The value for `COc1ccc(C(=O)Nc2ccc(Br)cc2C(=O)O)cc1S(=O)(=O)N1CCN(c2ccc(Cl)cc2)CC1` was 8 µg/mL (≈ 13.1 µM); that for `CCN(Cc1ccncc1)S(=O)(=O)c1ccc(C)c(C(=O)Nc2ccc(Br)cc2C(=O)O)c1` was over 128 µg/mL.
Next, `COc1cc(COc2cccc(C(=O)Nc3ccc(Br)cc3C(=O)O)c2)cc(OC)c1`: 16 µg/mL (≈ 32.9 µM); `O=C(Nc1ccc(Br)cc1C(=O)O)c1ccc(Br)c(S(=O)(=O)N2CCN(c3cccc(C(F)(F)F)c3)CC2)c1`: 8 µg/mL (≈ 11.6 µM).
Consider `Cc1ccc(S(=O)(=O)N2CCN(c3ccc(Cl)cc3)CC2)cc1C(=O)Nc1ccc(Br)cc1C(=O)O`, for which the MIC is 32 µg/mL (≈ 54 µM).
Take `O=C(Nc1ccc(Br)cc1C(=O)O)c1cccc(O)c1`: the MIC is 32 µg/mL (≈ 95.2 µM).
Next, `COc1ccc(C(=O)Nc2ccc(Br)cc2C(=O)O)cc1S(=O)(=O)NCc1ccc(N(C)C)cc1`: over 128 µg/mL.
Molecule `COCCOc1cccc(C(=O)Nc2ccc(Br)cc2C(=O)O)c1` came in with an MIC of 16 µg/mL (≈ 40.6 µM).
Next, `CCCC(=O)C(CCC)Oc1cccc(C(=O)Nc2ccc(Br)cc2C(=O)O)c1` (centres unmarked): 2 µg/mL (≈ 4.33 µM); `COC(=O)C(Oc1cccc(C(=O)Nc2ccc(Br)cc2C(=O)O)c1)c1ccccc1` (centres unmarked): 4 µg/mL (≈ 8.26 µM); `O=C(Nc1ccc(Br)cc1C(=O)O)c1ccc(O)cc1`: 32 µg/mL (≈ 95.2 µM).
Next, `Cc1ncsc1CCOc1cccc(C(=O)Nc2ccc(Br)cc2C(=O)O)c1`: 8 µg/mL (≈ 17.3 µM); `CCOc1cccc(C(=O)Nc2ccc(Br)cc2C(=O)O)c1`: 64 µg/mL (≈ 176 µM); `O=C(Nc1ccc(Br)cc1C(=O)O)c1cccc(OCCN2CCCC2=O)c1`: 32 µg/mL (≈ 71.5 µM).
Next, `CCOCCOCCOc1cccc(C(=O)Nc2ccc(Br)cc2C(=O)O)c1`: 32 µg/mL (≈ 70.7 µM); `Cc1oc(-c2ccccc2)nc1CCOc1cccc(C(=O)Nc2ccc(Br)cc2C(=O)O)c1`: 32 µg/mL (≈ 61.4 µM); `COC(=O)COc1cccc(C(=O)Nc2ccc(Br)cc2C(=O)O)c1`: 32 µg/mL (≈ 78.4 µM).
For the molecule `CCCC(Oc1cccc(C(=O)Nc2ccc(Br)cc2C(=O)O)c1)C(=O)OCC` (centres unmarked), 8 µg/mL (≈ 17.2 µM) was the least that counted as inhibitory (MIC).
`O=C(Nc1ccc(Br)cc1C(=O)O)c1cccc(OCc2cccnc2)c1` had an MIC of 32 µg/mL (≈ 74.9 µM). Compared with the last molecule, the MIC is about 4-fold higher.
The value for `O=C(Nc1ccc(Br)cc1C(=O)O)c1ccc(OCCOc2ccccc2)cc1` was 128 µg/mL (≈ 281 µM); that for `O=C(Nc1ccc(Br)cc1C(=O)O)c1cccc(OCC2CCOC2)c1` (centres unmarked) was 16 µg/mL (≈ 38.1 µM).
The value for `CC(=O)NCCOc1ccc(C(=O)Nc2ccc(Br)cc2C(=O)O)cc1` was 64 µg/mL (≈ 152 µM); that for `O=C(Nc1ccc(Br)cc1C(=O)O)c1cccc(OCn2nnc3ccccc32)c1` was 32 µg/mL (≈ 68.5 µM); that for `CCOCCOCCOc1ccc(C(=O)Nc2ccc(Br)cc2C(=O)O)cc1` was 128 µg/mL (≈ 283 µM).
The value for `CCOc1ccc(C(=O)Nc2ccc(Br)cc2C(=O)O)cc1` was 64 µg/mL (≈ 176 µM).
`COc1cccc(COc2ccc(C(=O)Nc3ccc(Br)cc3C(=O)O)cc2)c1` displayed a minimum inhibitory concentration (MIC) of 8 µg/mL (≈ 17.5 µM).
The value for `CN(CCOc1ccc(C(=O)Nc2ccc(Br)cc2C(=O)O)cc1)Cc1ccccc1` was 128 µg/mL (≈ 265 µM).
Next, `COC(=O)COc1ccc(C(=O)Nc2ccc(Br)cc2C(=O)O)cc1`: 64 µg/mL (≈ 157 µM); `COCCOc1ccc(C(=O)Nc2ccc(Br)cc2C(=O)O)cc1`: 128 µg/mL (≈ 325 µM); `O=C(Nc1ccc(Br)cc1C(=O)O)c1ccc(OCc2cccnc2)cc1`: 64 µg/mL (≈ 150 µM).
The value for `CCC#CCCOc1ccc(C(=O)Nc2ccc(Br)cc2C(=O)O)cc1` was 16 µg/mL (≈ 38.4 µM); that for `COC(COc1ccc(C(=O)Nc2ccc(Br)cc2C(=O)O)cc1)c1ccccc1` (centres unmarked) was 64 µg/mL (≈ 136 µM); that for `Nc1ccc(CCNS(=O)(=O)c2cccc(C(=O)Nc3ccc(Br)cc3C(=O)O)c2)cc1` was 64 µg/mL (≈ 123 µM).
The molecule `CCN(Cc1ccncc1)S(=O)(=O)c1cccc(C(=O)Nc2ccc(Br)cc2C(=O)O)c1` had an MIC of 32 µg/mL (≈ 61.7 µM).
On to `N#Cc1ccc(NC(=O)c2ccc(O)cc2)c(C(=O)O)c1`, for which it took 64 µg/mL (≈ 227 µM) to inhibit growth (MIC).
Next, `O=C(Nc1ccc(Br)cc1C(=O)O)c1cc(S(=O)(=O)Nc2ccc(F)c(Cl)c2)ccc1Br`: 32 µg/mL (≈ 52.7 µM); `COc1ccc(C(=O)Nc2ccc(Br)cc2C(=O)O)cc1S(=O)(=O)Nc1ccc(Cl)c2ccccc12`: over 128 µg/mL; `O=C(Nc1ccc(Br)cc1C(=O)O)c1cc(S(=O)(=O)N2CCc3ccccc32)ccc1Br`: 2 µg/mL (≈ 3.45 µM).
Next, `COc1ccc(C(=O)Nc2ccc(Br)cc2C(=O)O)cc1S(=O)(=O)Nc1ccc(N2CCOCC2)cc1`: 64 µg/mL (≈ 108 µM); `Cc1ccc(S(=O)(=O)NCCc2ccc(N)cc2)cc1C(=O)Nc1ccc(Br)cc1C(=O)O`: over 128 µg/mL.
The molecule `Cc1ccc(S(=O)(=O)N2CCN(c3cccc(C(F)(F)F)c3)CC2)cc1C(=O)Nc1ccc(Br)cc1C(=O)O` displayed an MIC of 16 µg/mL (≈ 25.5 µM).
The value for `CCN(Cc1ccncc1)S(=O)(=O)c1cc(C(=O)Nc2ccc(Br)cc2C(=O)O)ccc1Br` was 128 µg/mL (≈ 214 µM); that for `O=C(Nc1ccc(Br)cc1C(=O)O)c1cc(S(=O)(=O)Nc2ccc(F)c(Cl)c2)c(F)cc1Cl` was over 128 µg/mL.
Regarding `O=C(Nc1ccc(Br)cc1C(=O)O)c1ccc(/N=N/c2ccccc2)cc1`, the MIC is 16 µg/mL (≈ 37.7 µM).
Next, `O=C(Nc1ccc(Br)cc1C(=O)O)c1ccc(Br)c(S(=O)(=O)Nc2ccc3c(c2)OCCO3)c1`: 64 µg/mL (≈ 105 µM).
Next, `O=C(Nc1ccc(Br)cc1C(=O)O)c1ccccc1F`: 128 µg/mL (≈ 379 µM); `COc1ccc(C(=O)Nc2ccc(Br)cc2C(=O)O)cc1S(=O)(=O)N1CCN(c2cccc(C(F)(F)F)c2)CC1`: 32 µg/mL (≈ 49.8 µM); `N#Cc1ccc(NC(=O)c2cccc3cccc(C=O)c23)c(C(=O)O)c1`: over 128 µg/mL.
Next, `CC(C)CN1C(=O)c2ccc(C(=O)Nc3ccc(Br)cc3C(=O)O)cc2C1=O`: 2 µg/mL (≈ 4.49 µM).
On to `CN(C)c1cccc(C(=O)Nc2ccc(C#N)cc2C(=O)O)c1`, for which it took 8 µg/mL (≈ 25.9 µM) to inhibit growth (MIC). Compared with the last molecule, the MIC is about 4-fold higher.
Next, `O=C(Nc1ccc(Br)cc1C(=O)O)c1ccc2c(c1)C(=O)N(CC1CCCO1)C2=O` (centres unmarked): 8 µg/mL (≈ 16.9 µM).
Next, `C=Cc1ccc(C(=O)Nc2ccc(C#N)cc2C(=O)O)cc1`: 8 µg/mL (≈ 27.4 µM); `COc1ccc(C(=O)Nc2ccc(Br)cc2C(=O)O)cc1[N+](=O)[O-]`: 32 µg/mL (≈ 81 µM); `COc1cc(C(=O)Nc2ccc(C#N)cc2C(=O)O)cc(OC)c1OC`: 64 µg/mL (≈ 180 µM).
As for `CN1C(=O)c2ccc(C(=O)Nc3ccc(Br)cc3C(=O)O)cc2C1=O`, inhibition of growth (MIC) required 128 µg/mL (≈ 317 µM).
Next, `N#Cc1ccc(NC(=O)c2ccc(-c3ccccc3)cc2)c(C(=O)O)c1`: 64 µg/mL (≈ 187 µM); `COc1cc(C(=O)Nc2ccc(C#N)cc2C(=O)O)ccc1C`: over 128 µg/mL.
